Entries after “also recorded” stand apart in the source; their conditions may differ.
Tests used:
Type in all cases: cell-based, human
Jurkat cells [1] = test: Flow cytometry (PI, La, hTERT, TRF2 staining) of Jurkat cells after cytotoxic treatment; conditions: FIG. 4B; for hTERT staining of Jurkat cells: 48 h treatment, only in PI high cells
Description: (§1) FIG. 4 is a graphical representation of the cytotoxic treatment of malignant human cells results in increased expression of TRF2 and La in apoptotic cells 24 h after treatment and in increased expression of hTERT in apoptotic cells 48 h after treatment. A. Jurkat cells after 24 h treatment with cytotoxic agents. […] B. Jurkat cells after 48 h treatment with cytotoxic agents. […] C. Raji cells after 24 h treatment with cytotoxic agents. […] D. Jurkat cells after 24 h treatment with cytotoxic agents. […] E. Jurkat cells after 48 h treatment with cytotoxic agents. Staining for La (3B9-F1TC) and TRF2 in apoptotic cells was more evident 48 h after treatment with all cytotoxic agents. F. Raji cells after 48 h treatment with cytotoxic agents. […] G. HeLa cells after 48 h treatment with cytotoxic agents. […] In each case, the staining is indicated above each column of panels and the cytotoxic employed is indicated to the left of each row of panels. Also indicated is a PI only control and negative controls for hTERT staining (purified rat IgG or anti-rat secondary antibody alone) and for TRF2 staining (purified mouse IgG or anti-mouse secondary antibody alone).
(§2) The Jurkat and Raji cell lines were cultured in RPMI supplemented with 10% FCS, 50 U/mL penicillin and 50 μg/mL streptomycin sulphate and the U2OS and HeLa cell lines were cultured in DMEM supplemented with 10% FCS, 50 U/mL penicillin and 50 μg/mL streptomycin sulphate (JRH Laboratories). The cell lines were treated for 24 or 48-hour periods with various cytotoxic agents as follows: Jurkat and Raji cells with etoposide, 20 μg/mL; HeLa and U2OS cells with cisplatin, 1 μg/mL, and vincristine, 0.1 μg/mL; Jurkat, HeLa and U2OS cells with 0.5 μM STS, and Raji cells with 2 μM STS. The treated cells were stained with propidium iodide (PI) (Sigma) 0.5 μg/mL and FITC-conjugated Sal5 or 3B9 mAb, or mouse anti-TRF2 mAb (clone 36, Becton-Dickinson) and then secondary antibody, anti mouse FITC (Chemicon, Temecula, Calif., USA), or rat anti-hTERT mAb (clone 36-10, Alexis Biochemicals) and then secondary antibody, anti rat FITC (Caltag, Burlingame, Calif., USA). Purified mouse IgG or rat IgG (Institute of Medical and Veterinary Science, Adelaide, Australia) were used as negative controls for TRF2 and hTERT staining, respectively. To further improve the method for detection of hTERT for later use in whole blood staining, which appeared to have been hindered by the presence of autofluorescence presumably emanating from red blood cells, anti-hTERT monoclonal antibody clone 36-10 was conjugated directly to AlexaFluor350 (Molecular Probes), which is excited at 355 nm and emits maximally between 420-460 nm. Anti-hTERT-Alexa350 was combined with the EpCAM monoclonal antibody (BD Biosciences), which is conjugated to PE that excites at 488 nm and emits 560-590 nm, and the nuclear impermeant DNA-binding dye TOPRO-3 (Molecular Probes), which excites at 560 nm and emits maximally in the far red region (>650 nm).
The human T cell leukemia cell line, Jurkat, and the human B lymphoma cell line, Raji, were treated for 24 or 48 hour periods with the following cytotoxic agents: staurosporine, which is a pan-kinase inhibitor, etoposide, which is a topoisomerase II inhibitor, vincristine, which is a microtubule depolymerising agent and cisplatin, which is a DNA cross linking agent. Cells were then stained with propidium iodide (PI) and the anti-La monoclonal antibody (mAb), 3B9, or its isotype control, Sal5, or with mAbs specific for hTERT or TRF2. As negative controls for staining with the hTERT- or TRF2-specific mAbs, rat IgG and anti-rat secondary antibody or mouse IgG and anti-mouse secondary antibody, respectively, were used.

Raji cells = test: Flow cytometry (PI, La, hTERT, TRF2 staining) of Raji cells after cytotoxic treatment; conditions: for TRF2 staining of Raji cells: 48 hours, FIG. 4F
Description: as §1
as §2, with “Anti-hTERT-Alexa350 was combined with the EpCAM monoclonal antibody (BD Biosciences), which is conjugated to PE that excites at 488 nm and emits 560-590 nm, and the nuclear impermeant DNA-binding dye TOPRO-3 (Molecular Probes), which excites at 560 nm and emits maximally in the far red region (>650 nm).” left out

U2OS cells [2] = test: Viability analysis using trypan blue staining after induction of apoptosis, U2OS cells; conditions: 0.5 μM staurosporine
Description: (§3) Jurkat cells (ATCC #TIB-152) were maintained in RPMI 1640 supplemented with 5% fetal calf serum (FCS). U2OS cells (ATCC #HTB-96) were maintained in DMEM supplemented with 5% FCS and passaged every 48-72 hours after detachment with Trypsin EDTA. Jurkat cells express telomerase and thus have the integral RNA component, hTR, whereas U2OS cells lack telomerase and hTR. Apoptosis was induced by the addition of 0.5 μM staurosporine to the culture media for 24, 48 or 72 hours.
(§4) The RNA for hTR was not detected in the hTR-negative U2OS cells but was detected in the hTR-positive Jurkat cells 24, 48 and 72 hours after the induction of apoptosis.

Jurkat cells [3] = test: Viability analysis using trypan blue staining after induction of apoptosis, Jurkat cells; conditions: 0.5 μM staurosporine
Description: as §3, §4

HeLa cells = test: Flow cytometry (PI, La, hTERT, TRF2 staining) of HeLa cells after cytotoxic treatment; conditions: FIG. 4G; for apoptosis and La staining in HeLa cells: 48 h treatment
Description: as §1, §2
Similarly, TRF2 staining of PI^+ dead Jurkat cells was evident as soon as 24 hours after cytotoxic treatment (FIG. 4D) and 48 hours afterwards (F1G. 4E). […] In contrast, it took 48 hours after treatment with cisplatin, etoposide and vincristine for hTERT staining of PI^+ dead Jurkat cells to be evident (arrows, FIG. 4B). hTERT staining of PI^+ dead Raji cells was evident 48 hours after treatment with vincristine (arrow, FIG. 4C). As additional controls, the telomerase-expressing human cervical carcinoma cell line, HeLa, and the telomerase-negative human osteosarcoma cell line, U2OS (M Frolkis et al. Cancer Gene Therapy 10, 239-249, 2003), were also treated with staurosporine, vincristine and etoposide and analysed by flow cytometry 48 hours after treatment.

U2OS cells [4] = test: Flow cytometry (PI, La, hTERT, TRF2 staining) of U2OS cells after cytotoxic treatment; conditions: FIG. 4H
Description: as §1, §2
Similarly, TRF2 staining of PI^+ dead Jurkat cells was evident as soon as 24 hours after cytotoxic treatment (FIG. 4D) and 48 hours afterwards (F1G. 4E). […] As additional controls, the telomerase-expressing human cervical carcinoma cell line, HeLa, and the telomerase-negative human osteosarcoma cell line, U2OS (M Frolkis et al. Cancer Gene Therapy 10, 239-249, 2003), were also treated with staurosporine, vincristine and etoposide and analysed by flow cytometry 48 hours after treatment.

PBMC = test: hTERT / 7-AAD staining of PBMC after staurosporine-induced apoptosis; conditions: 24 hours after induction of apoptosis, 1 μM staurosporine, FIG. 5
Description: (§5) FIG. 5 is a graphical representation of the culturing of PMBC with conconavalin A (conA) 10 μg/mL for 72 h. Viable cells were obtained by density gradient centrifugation and then apoptosis was induced using 1 μM staurosporine for 24 h. Jurkat cells were also treated with 1 μM staurosporine for 24 h. Dot plots depict staining for 7-AAD and hTERT. The negative control is staining with the secondary antibody alone.
(§6) Peripheral blood mononuclear cells (PBMC) were prepared from a buffy coat of a discarded unit of whole blood that had been obtained from the South Australian Red Cross Blood Bank. Initially, PBMC had been separated by density gradient centrifugation over Lymphoprep (Axis-Shield, Dundee, UK) and frozen in aliquots using a controlled rate freezer. […]
(§7) After treatment, all cells were harvested, washed in PBS and stained with 7-amino actinomycin D (7-AAD) (2 μg/mL) and anti-La 3B9 mAb or its isotype control mAb, Sal5, and then with the secondary anti-mouse antibody conjugated to R-phycoerythrin (Zymed, San Francisco, Calif., USA), or with rat anti-hTERT mAb (Alexis Biochemicals, San Diego, Calif., USA) and then with the secondary anti-rat antibody conjugated to FITC (Chemicon). Cells were analysed using a FACScan (Becton Dickinson, Franklin Lakes, N.J., USA) and the results analysed with WinMDI v2.8 software.

Jurkat cells [5] = test: hTERT / 7-AAD staining of Jurkat cells after staurosporine-induced apoptosis; conditions: 24 hours after induction of apoptosis, 1 μM staurosporine, FIG. 5
Description: as §5, §6, §7

H69 cells = test: BerEP4-FITC / PI staining of etoposide-treated H69 cells; conditions: 48 hours
Description: FIG. 8 is a graphical representation of the staining of H69 cells using the anti-epithelial marker monoclonal antibody BerEP4-FITC. H69 cells (1×10^6 cells/mL) were cultured in RPMI-1640 containing 5% FCS in the absence or presence of the specified concentrations of etoposide (0-400 μg/mL). After 48 hours of incubation, cells were collected and incubated at room temperature for 15 minutes with (A) 5 μg/mL BerEP4-FITC or (B) 5 μg/mL mouse IgG2aκ-FITC isotype. Cells were washed and pellets were resuspended in 0.5 μg/mL solution of PI in PBS then analysed by flow cytometry.

| SMILES | hTERT staining of Jurkat cells (Jurkat cells [1]) | time after treatment for hTERT staining of PI+ dead Jurkat cells to be evident (Jurkat cells [1]) [h] | TRF2 staining of Raji cells (Raji cells) | hTERT staining of PI+ dead HeLa cells (HeLa cells; 48 hours after treatment) | apoptosis and La staining in HeLa cells (HeLa cells) | hTERT staining of PI+ dead U2OS cells (U2OS cells [4]; 48 hours after treatment) | also measured |
| --- | --- | --- | --- | --- | --- | --- | --- |
| N.N.[Cl][Pt][Cl] [cisplatin] | increased staining for hTERT | 48 | slightly increased staining; also recorded: increased TRF2 staining | – | – | – | – |
| CN[C@@H]1C[C@H]2O[C@@](C)([C@@H]1OC)n1c3ccccc3c3c4c(c5c6ccccc6n2c5c31)C(=O)NC4 [staurosporine] | – | – | – | Evident staining; also recorded: staining for hTERT | induced apoptosis | not and no corresponding staining | U2OS cells dead (trypan blue) (U2OS cells [2]; 24 hours): 36%; U2OS cells dead (trypan blue) (U2OS cells [2]; 48 hours): 95%; U2OS cells dead (trypan blue) (U2OS cells [2]; 72 hours): 100%; Jurkat cells dead (trypan blue) (Jurkat cells [3]; 24 hours): 40%; Jurkat cells dead (trypan blue) (Jurkat cells [3]; 48 hours): 85%; Jurkat cells dead (trypan blue) (Jurkat cells [3]; 72 hours): 100%; TRF2 staining of PI+ dead U2OS cells (U2OS cells [4]; 48 hours after treatment): no corresponding staining; apoptosis and La staining in U2OS cells (U2OS cells [4]; 48 h treatment): induced apoptosis; telomerase expression in dead PBMC (PBMC): little if any; telomerase expression in Jurkat cells (Jurkat cells [5]): little if any |
| COc1cc([C@@H]2c3cc4c(cc3[C@@H](O[C@@H]3O[C@@H]5CO[C@@H](C)O[C@H]5[C@H](O)[C@H]3O)[C@H]3COC(=O)[C@H]23)OCO4)cc(OC)c1O [etoposide] | increased staining for hTERT | 48 | – | Evident staining; also recorded: staining for hTERT | induced apoptosis | not | TRF2 staining of PI+ dead HeLa cells (HeLa cells; 48 hours after treatment): Evident staining; also recorded: little staining for TRF2; etoposide concentration giving maximal proportion of dead (BerEP4+ PI+) H69 carcinoma cells (H69 cells; FIG. 8A): 200 to 400 µg/mL; extent of cell death of H69 cells (H69 cells; etoposide 0-400 μg/mL, FIG. 8): dose-dependent |
| CC[C@]1(O)C[C@H]2CN(CCc3c([nH]c4ccccc34)[C@@](C(=O)OC)(c3cc4c(cc3OC)N(C=O)[C@H]3[C@@](O)(C(=O)OC)[C@H](OC(C)=O)[C@]5(CC)C=CCN6CC[C@]43[C@@H]65)C2)C1 [vincristine] | increased staining for hTERT | 48 | slightly increased staining; also recorded: increased TRF2 staining | Evident staining; also recorded: staining for hTERT | induced apoptosis | not | hTERT staining of Raji cells (Raji cells; 24 h treatment (legend FIG. 4C)): marginally increased staining; hTERT staining of PI+ dead Raji cells (Raji cells; 48 hours after treatment (text, FIG. 4C)): evident |
